In patent US4428952A, “Substituted pyrrolo[2,1-b]quinazolines and pyrido[2,1-b]quinazolines useful for the treatment of or the prevention of gastrointestinal ulcers” (Farmitalia Carlo Erba S.p.A., priority 1981, dated 1984):

Key:
[1] = tested on: restraint ulcers; assay: inhibition of restraint ulcers in rats (Bonfils et al.); type: in vivo, rat (Sprague-Dawley male); details: po; rat, p.o. one hour before immobilization; approximate values; lesions counted 4 hours after immobilization; read-out: Anti-ulcerogenic activity ED50 p.o.
Procedure: The anti-ulcerogenic activity of the compounds of the invention is shown, e.g., by the fact that they are active in the test of the inhibition of restraint ulcers in rats, according to the method of Bonfils et al., (Therapie, 1960, 5, 1096; Jap. J. Pharmac. 1945, 43, 5).
The tested compound was administered per os (p.o.) one hour before the immobilization. Six Sprague-Dawley male rats (100-120 g) fasted 24 hours were used for the experiment: a square flexible small-mesh wire netting was used for the immobilization and 4 hours after the immobilization the rats were sacrificed, their stomachs were removed and the lesions counted under a dissecting microscope.

[2] = tested on: gastric secretion; assay: inhibition of gastric secretion in rats (H. Shay et al.); type: in vivo; details: Rattus norvegicus, intraduodenal administration, approximate value, read-out: antisecretory activity ED50
[3] = acute toxicity (LD50), single administration of increasing doses; details: in vivo, po, mouse, per os, measured on the seventh day of treatment, read-out: approximate acute toxicity (LD50)
Text: In view of their high therapeutic index the compounds of the invention can be safely used in medicine. For example, the approximate acute toxicity (LD50) of the compounds 3-benzylidene-1,2,3,9-tetrahydro-9-oxo-pyrrolo[2,1-b]quinazoline-7-carboxylic acid; 3-benzylidene-1,2,3,9-tetrahydro-9-oxo-pyrrolo[2,1-b]quinazoline-6-carboxylic acid; 6-benzylidene-6,7,8,9-tetrahydro-11-oxo-11H-pyrido[2,1-b]quinazoline-2-carboxylic acid; 6-benzylidene-6,7,8,9-tetrahydro-11-oxo-11H-pyrido[2,1-b]quinazoline-3-carboxylic acid in mouse, determined with single administration of increasing doses and measured on the seventh day of treatment is per os higher than 800 mg/kg.

[4] = tested on: syndrome induced by oxotremorine; assay: antagonism against syndrome induced by oxotremorine in mice (Leszkovszky and Tardos); anticholinergic activity; type: in vivo, mouse; details: 100 mg/kg, oral administration
Text: Considering that many anti-ulcer agents display, as does atropine, a remarkable but undesired anti-cholinergic activity, the compounds of the invention have been assessed for their antagonism against syndrome induced by oxotremorine in mice, according to the method described by Leszkovszky G. P. and Tardos L. (Europ. J.Pharmac. 1971, 15, 310).

SMILES | ED50 [1] [mg/kg] | ED50 [2] [mg/kg] | LD50 at 168 h [3] [mg/kg] | antagonism against syndrome induced by oxotremorine [4]
O=C(O)c1ccc2c(=O)n3c(nc2c1)C(=Cc1ccccc1)CCC3 [6-benzylidene-6,7,8,9-tetrahydro-11-oxo-11H-pyrido/2,1-b/quinazoline-3-carboxylic acid] | ~8 | ~15 | > 800 | inactive
O=C(O)c1ccc2nc3n(c(=O)c2c1)CCCC3=Cc1ccccc1 [6-benzylidene-6,7,8,9-tetrahydro-11-oxo-11H-pyrido[2,1-b]quinazoline-2-carboxylic acid] | ~9 | – | > 800 | inactive
O=C(O)c1ccc2nc3n(c(=O)c2c1)CCC3=Cc1ccccc1 [3-benzylidene-1,2,3,9-tetrahydro-9-oxo-pyrrolo[2,1-b]quinazoline-7-carboxylic acid] | ~8 | – | > 800 | inactive
O=C(O)c1ccc2c(=O)n3c(nc2c1)C(=Cc1ccccc1)CC3 [3-benzylidene-1,2,3,9-tetrahydro-9-oxo-pyrrolo[2,1-b]quinazoline-6-carboxylic acid] | ~10 | – | > 800 | inactive
